Measured values as given in US20250084065A1, “INHIBITING MONOACYLGLYCEROL LIPASE (MAGL)” (Psy Therapeutics, Inc., priority 2021, published 2025).
Read-outs that look alike come from different tables or passages of the source.

Tests used:
[1] = biological target: T1, MAGL enzyme (Homo sapiens, UniProt Q99685); experiment: MAGL reversible inhibition assay (return of activity after washout); assay type: biochemical; settings: for A: degree to which MAGL enzymatic activity returned following washout: pre-washout compound concentration 1 μM, relative to control without inhibitor
T1 sequence (Q99685 1-303): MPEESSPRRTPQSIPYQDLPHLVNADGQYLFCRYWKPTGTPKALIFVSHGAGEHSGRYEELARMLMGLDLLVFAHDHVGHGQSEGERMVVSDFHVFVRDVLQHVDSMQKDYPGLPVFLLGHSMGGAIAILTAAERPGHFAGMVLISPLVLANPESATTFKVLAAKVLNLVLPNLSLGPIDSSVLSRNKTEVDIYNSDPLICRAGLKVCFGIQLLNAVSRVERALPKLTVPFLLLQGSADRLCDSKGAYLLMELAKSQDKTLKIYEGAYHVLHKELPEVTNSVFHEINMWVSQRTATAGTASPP
Description: Example 24: Measuring Reversible MAUL Inhibition (IC50)
The reversible mechanism of MAGL inhibition of a test compound of Formula (I) can be determined. Flag-tagged MAGL enzyme will be immobilized on anti-Flag beads. […] Colorimetric substrate (4-NPA) will be added and the reaction monitored on a plate reader for 30 minutes to verify complete inhibition. Immobilized enzyme will then be washed thoroughly to remove the inhibitor, and fresh substrate will be added. The reaction will be monitored for an additional 30 minutes; returning enzymatic activity will indicate reversibility of inhibition.
Determining MAGL Reversible Inhibition:
MAGL enzyme was incubated for 30 minutes in the presence of 40× the IC50 concentration of inhibitor. […] Substrate was added and the reaction was monitored for 30 minutes.

[2] = Pharmacokinetic study of compounds in mice (brain exposure); assay type: in vivo, male C57BL/6 mice; settings: male, C57BL/6, mouse, oral, 5 mg/kg, Protocols B-E
Description: Example 25: Pharmacokinetic Study of Compounds in Mice
Healthy male C57BL/6 mice (8-12 weeks old) weighing between 17 to 35 g were procured from Global, India. Temperature and humidity were maintained at 22±3° C. and 30-70%, respectively and illumination was controlled to give a sequence of 12 hr light and 12 hr dark cycle. Temperature and humidity were recorded by auto-controlled data logger system. All the animals were provided laboratory rodent diet. Reverse osmosis water treated with ultraviolet light was provided ad libitum.
Protocol A: Twenty-four male mice were divided into two groups as; Group 1: 30 mg/kg/IP; Plasma and brain; Number of animals=12; Animal #1-12. Group 2: 30 mg/kg/PO; Plasma and brain; Number of animals=12; Animal #13-24. Animals in Group 1 were administered intraperitoneally with solution formulation of PSY-05-00074-001 in 5% NMP, 5% Solutol HS-15 and 90% normal saline at […] dose. Animals in Group 2 were administered orally with solution formulation of PSY-05-00074-001 in 5% NMP, 5% Solutol HS-15 and 90% normal saline at 30 mg/kg dose. Blood samples (approximately 60 μL) were collected under light isoflurane anesthesia from retro orbital plexus at 0.25, 0.5, 1, 2, 4 and 8 hr (IP and PO). Plasma samples were separated by centrifugation of whole blood and stored below −70° C. until bioanalysis. Immediately after collection of blood from intraperitoneal and oral group animals, animals were euthanized with excess CO2 and brain samples were collected from set of two mice at each time point. Brain samples were divided into two parts. Half brain samples were homogenized using ice-cold phosphate buffer saline (pH-7.4) and homogenates were stored below −70±10° C. until analysis. Total homogenate volume was three times the brain weight. Other part of brain was stored below −70±10° C. for further analysis. All samples were processed for analysis by protein precipitation using acetonitrile and analyzed with fit-for-purpose LC/MS/MS method (LLOQ-2.02 ng/mL for plasma and 6.06 ng/g for brain). Pharmacokinetic parameters were calculated using the non-compartmental analysis tool of Phoenix WinNonlin®.
Protocol B: Thirty six mice were included into the study and divided in to three groups as Group 1 (n=12), Group 2 (n=12) and Group 3 (n=12) with n=2 mice per time-point design. Animals in Group 1 were administered intravenously with solution formulation of PSY-05-00414-001 at 5 mg/kg dose. Animals in Group 2 were administered orally with solution formulation of PSY-05-00414-001 at a dose of 5 mg/kg. Animals in Group 3 were administered intraperitoneally with solution formulation of PSY-05-00414-001 at 5 mg/kg dose. The formulation vehicle for all the three groups was 5% NMP, 5% Solutol HS-15 and 90% normal saline. Blood samples (approximately 60 μL) were collected under light isoflurane anesthesia from two mice at 0.25, 0.5, 1, 2, 4 and 8 h. Plasma was harvested by centrifugation of blood and stored at −70±10° C. until analysis. After blood collection, brain was perfused and isolated at 0.25, 0.5, 1, 2, 4 and 8 h. Brain samples were dipped thrice in ice-cold phosphate buffer saline, blotted dry and cut in to two equal portion. Half-brain samples from each time-point were weighed and homogenized using ice-cold phosphate buffer saline with twice volume of brain weight making the total homogenate three volumes and stored below −70±10′° C. until analysis. Remaining half-portions of brain samples was snap freeze and kept in −70±10° C. until further confirmation from client. Plasma and brain samples were quantified by fit-for-purpose LC-MS/MS method (LLOQ: 1.01 ng/mL for plasma and 2.02 ng/mL for brain).
Protocol C: Fifty four male mice were included in study and divided in to three groups as Group 1 (n=18), Group 2 (n=18) and Group 3 (n=18) with 3 mice/time point design. […]

[3] = biological target: T2, human MAGL (Homo sapiens, UniProt Q99685); experiment: MAGL inhibition potency assay with 4-nitrophenyl acetate (4NPA) substrate, absorbance 405 nm; assay type: biochemical; settings: read-out: MAGL Potency (Detection Method)
T2 construct: recombinant MAGL enzyme (aa 2-303 RBC, internal preparation)
T2 sequence (Q99685 2-303): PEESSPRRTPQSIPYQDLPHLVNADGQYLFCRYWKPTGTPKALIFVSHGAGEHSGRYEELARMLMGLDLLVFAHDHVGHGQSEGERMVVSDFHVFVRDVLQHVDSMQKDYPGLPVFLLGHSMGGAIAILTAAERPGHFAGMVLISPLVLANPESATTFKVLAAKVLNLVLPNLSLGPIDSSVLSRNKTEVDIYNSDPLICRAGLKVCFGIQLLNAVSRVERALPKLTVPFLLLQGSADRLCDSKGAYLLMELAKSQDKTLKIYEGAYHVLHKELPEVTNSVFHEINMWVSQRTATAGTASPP

**Q.** With `O=C(c1cc(O)ccc1F)N1CC2(CC(n3cc(C(F)(F)F)c(-c4ccccc4F)n3)C2)C1` (single isomer, unassigned) [Compound 473, (2-fluoro-5-hydroxyphenyl)(6-(3-(2-fluorophenyl)-4-(trifluoromethyl) 1H-pyrazol-1-yl)-2-azaspiro[3.3]heptan-2-yl)methanone] as the compound, how does the A: degree to which MAGL enzymatic activity returned following washout [1] read?
**A.** Its A: degree to which MAGL enzymatic activity returned following washout is 41%.

**Q.** What about the AUC(0-t) [2] of the same compound?
**A.** The AUC(0-t) was 464 ng·h/mL.

**Q.** And the Cmax [2]?
**A.** The Cmax was 172 ng/g.

**Q.** Which A: degree to which MAGL enzymatic activity returned following washout [1] does the source give for `O=C(c1cc(O)ccc1F)N1CC2(CC(n3cc(C4CC4)c(-c4ccccc4F)n3)C2)C1` (single isomer, unassigned) [Compound 493, (6-(4-Cyclopropyl-3-(2-fluorophenyl)-1H-pyrazol-1-yl)-2-azaspiro [3.3]heptan-2-yl) (2-fluoro-5-hydroxyphenyl) methanone] here?
**A.** The A: degree to which MAGL enzymatic activity returned following washout was 47%.

**Q.** With `Cc1cnn(C2CC3(C2)CN(C(=O)c2cc(O)ccc2F)C3)c1-c1cc(F)ccc1Cl` (single isomer, unassigned) [Compound 519, (6-(5-(2-chloro-5-fluorophenyl)-4-methyl-1H-pyrazol-1-yl)-2-azaspiro [3.3]heptan-2-yl) (2-fluoro-5-hydroxyphenyl) methanone] as the compound, how does the A: degree to which MAGL enzymatic activity returned following washout [1] read?
**A.** The A: degree to which MAGL enzymatic activity returned following washout was 155%.

**Q.** Which IC50 ([3]; Method 2: Cayman Chemical MAGL enzyme prep, 10 nM enzyme) does the source give for `Cc1cc(C2CC3(C2)CN(C(=O)c2ccc(F)cc2OCC(F)(F)F)C3)n(-c2ccccc2C)n1` [Compound 178, [4-fluoro-2-(2,2,2-trifluoroethoxy)phenyl]{6-[3-methyl-1-(o-tolyl)-5-pyrazolyl]-2-aza-2-spiro[3.3]heptyl}methanone] here?
**A.** Its IC50 is less than 50 nM.

**Q.** And the IC50 ([3]; Method 3: Reaction Biology MAGL enzyme prep, 10 nM enzyme)?
**A.** Its IC50 is less than 50 nM.

**Q.** And the IC50 ([3]; Method 5: Cayman Chemical MAGL enzyme prep, 25 nM enzyme)?
**A.** Its IC50 is less than 50 nM.

**Q.** Which A: degree to which MAGL enzymatic activity returned following washout [1] does the source give for `Cc1cn(C2CC3(C2)CN(C(=O)c2cc(O)ccc2F)C3)nc1-c1cc(F)ccc1Cl` [Compound 520, (6-(3-(2-chloro-5-fluorophenyl)-4-methyl-1H-pyrazol-1-yl)-2-azaspiro [3.3]heptan-2-yl)(2-fluoro-5-hydroxyphenyl) methanone] here?
**A.** Its A: degree to which MAGL enzymatic activity returned following washout is 100%.

**Q.** For `O=C(Oc1ccc([N+](=O)[O-])cc1)N1CCC(C(O)(c2ccc3c(c2)OCO3)c2ccc3c(c2)OCO3)CC1` [JZL-184, reference compound], which “B: % MAGL activity returning after washout” value ([1]; immediately following a 30 minute washout, relative to control (no inhibitor before washout), pre-washout 1 μM) is on record?
**A.** Its value is less than 1%.

**Q.** And the “A: degree to which MAGL enzymatic activity returned following washout” value [1]?
**A.** Its value is “complete lack of return of MAGL enzymatic activity”.
